Experiment [1] addresses RIPK1 (Homo sapiens (Human), UniProt Q13546). Description: ADP-Glo Kinase Assay. It counts as biochemical. The note with it: 5 nM RIPK1 protein, 50 μM ATP, 6 hr reaction, average value across multiple runs. The procedure, abridged: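 ADP formed from ATP is measured by ADP-Glo luminescence with 5 nM RIPK1, preincubated 10 min with compound, then 50 μM ATP for 6 h. Buffer is 50 mM HEPES pH 7.5, 50 mM NaCl, 30 mM MgCl2, 1 mM DTT, 0.05% BSA, 0.02% CHAPS. IC50 comes from a four-parameter fit, averaged over runs.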
In general terms: ADP-Glo turns the ADP formed in a reaction into a luminescent signal.

Experiment [2] deals with human monocytic cell line U937. Description: Human U937 Cellular Necroptosis Assay. The class given is cell-based. The note with it: U-937; U937 cells stimulated with 25 ng/mL human TNFalpha and 25 μM z-VAD-FMK, 22 hr, viability by Cell Titer-Glo 2.0; average value across multiple runs; read-out: hU937 IC50. The protocol: Human U937 Cellular Necroptosis Assay
The human monocytic cell line U937 (CRL-1593.2) was purchased from ATCC. The cells were routinely maintained in RPMI-1640 Medium (Gibco, Catalog #11875-093) supplemented with 10% heat inactivated fetal bovine serum (Gibco, Catalog #16140-071), 100 units/mL penicillin and 100 μg/mL streptomycin (Gibco, Catalog #15140-122), in a humidified incubator (37° C., 5% CO2). For the assay, cells were resuspended in RPMI-1640 phenol red free Media (Gibco, Catalog #11835-030) supplemented with 10% fetal bovine serum (Sigma, Catalog #F2442), 100 units/mL penicillin and 100 ug/mL streptomycin. Cells were stimulated with 25 ng/mL human TNFalpha (Cell Sciences, Catalog #CSI15659B) and 25 μM z-VAD-FMK (R&D Systems, Catalog #FMK001) followed by seeding 5000 cells per well in a volume of 40 μL to a white, CulturPlate-384 (Perkin Elmer, Catalog #6007680). Stock solutions of the test compounds were prepared in 100% DMSO (Sigma, Catalog #D2650) and serially diluted 1:3 using 100% DMSO. Compounds were additionally diluted 1:40 in assay medium, and 10 μL/well was transferred to the plate. Following the compound addition the plate was incubated at 37° C. and 5% CO2 for 22 hr. After 22 hr, viability was assessed with the addition of 20 μL of Cell Titer-Glo 2.0 (Promega, Catalog #G9243). The tissue culture plate was shaken on an orbital shaker at 300 RPM for 15 minutes at room temperature in the dark. Luminescence was measured using a PerkinElmer Envision™ plate reader. IC50 values were calculated using a four-parameter logistic curve fit using Genedata Screener software. Results are shown below in Table 5, where the average value across multiple runs is given.
In general terms: In ATP-based viability assays light output follows the ATP content of the culture.

pIC50: −log10 of the molar value.

Sequence of RIPK1 (Q13546 1-327): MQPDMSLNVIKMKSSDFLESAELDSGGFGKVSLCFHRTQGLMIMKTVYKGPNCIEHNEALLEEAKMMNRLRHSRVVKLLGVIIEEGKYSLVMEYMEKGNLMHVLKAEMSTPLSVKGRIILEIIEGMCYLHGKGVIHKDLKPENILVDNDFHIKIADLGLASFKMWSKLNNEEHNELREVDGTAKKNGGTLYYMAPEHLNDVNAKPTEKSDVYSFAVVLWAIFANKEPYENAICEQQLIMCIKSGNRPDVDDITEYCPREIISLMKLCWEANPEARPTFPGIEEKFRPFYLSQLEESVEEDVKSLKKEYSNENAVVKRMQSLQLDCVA

As to `Cc1c(Br)c(=O)c(C(=O)NC2CCc3ccccc3NC2=O)nn1-c1ccccc1` (centres unmarked) [Example 42, 5-Bromo-6-methyl-4-oxo-N-(2-oxo-2,3,4,5-tetrahydro-1H-benzo[b]azepin-3-yl)-1-phenyl-1,4-dihydropyridazine-3-carboxamide], the results for the negative logarithm of the IC50 (pIC50) in experiment [1] and in experiment [2] were 7.44 and 6.85, respectively.

Turning to `Cc1c(Br)c(=O)c(C(=O)NC2CCc3cc(Br)ccc3NC2=O)nn1-c1ccccc1` (centres unmarked) [Example 43, 5-Bromo-N-(7-bromo-2-oxo-2,3,4,5-tetrahydro-1H-benzo[b]azepin-3-yl)-6-methyl-4-oxo-1-phenyl-1,4-dihydropyridazine-3-carboxamide], the pIC50 (in general, the IC50 on a negative log10 scale, so that one unit is a factor of ten) was 7.64 in experiment [1] and 7.32 in experiment [2].

With `Cc1c(Br)c(=O)c(C(=O)NC2CCc3cc(C#N)ccc3NC2=O)nn1-c1ccccc1` (centres unmarked) [Example 44, 5-Bromo-N-(7-cyano-2-oxo-2,3,4,5-tetrahydro-1H-benzo[b]azepin-3-yl)-6-methyl-4-oxo-1-phenyl-1,4-dihydropyridazine-3-carboxamide], the pIC50 in experiment [1] was 7.21; in experiment [2], 6.80.

Take `Cc1c(Cl)c(=O)c(C(=O)NC2CCc3cc(Cl)ccc3N(C)C2=O)nn1-c1ccccc1` (centres unmarked) [Example 45, 5-Chloro-N-(7-chloro-1-methyl-2-oxo-2,3,4,5-tetrahydro-1H-benzo[b]azepin-3-yl)-6-methyl-4-oxo-1-phenyl-1,4-dihydropyridazine-3-carboxamide]: the pIC50 is 7.55 in experiment [1] and 7.14 in experiment [2].

Consider `Cc1c(C#N)c(=O)c(C(=O)NC2CCc3ccccc3N(C)C2=O)nn1-c1ccccc1` (centres unmarked) [Example 47, 5-Cyano-6-methyl-N-(1-methyl-2-oxo-2,3,4,5-tetrahydro-1H-benzo[b]azepin-3-yl)-4-oxo-1-phenyl-1,4-dihydropyridazine-3-carboxamide], for which the negative logarithm of the IC50 (pIC50) in experiment [1] is 7.14; in experiment [2], 7.07.

As to `Cc1cc(=O)c(C(=O)NC2CCc3cc(F)cc(F)c3NC2=O)nn1-c1ccccc1` (centres unmarked) [Example 48, N-(7,9-difluoro-2-oxo-2,3,4,5-tetrahydro-1H-benzo[b]azepin-3-yl)-6-methyl-4-oxo-1-phenyl-1,4-dihydropyridazine-3-carboxamide], the values for the pIC50 in experiment [1] and in experiment [2] were 7.29 and 7.15, respectively.

With `Cc1cc(=O)c(C(=O)NC2CCc3cc(F)cc(F)c3N(C)C2=O)nn1-c1ccccc1` (centres unmarked) [Example 49, N-(7,9-difluoro-1-methyl-2-oxo-2,3,4,5-tetrahydro-1H-benzo[b]azepin-3-yl)-6-methyl-4-oxo-1-phenyl-1,4-dihydropyridazine-3-carboxamide], the negative logarithm of the IC50 (pIC50) in experiment [1] was 7.19; in experiment [2], 7.18.

With `Cc1cc(=O)c(C(=O)N[C@H]2COc3cccnc3N(C)C2=O)nn1-c1ccccc1` [Example 50, (S)-6-methyl-N-(5-methyl-4-oxo-2,3,4,5-tetrahydropyrido[3,2-b][1,4]oxazepin-3-yl)-4-oxo-1-phenyl-1,4-dihydropyridazine-3-carboxamide], the pIC50 in experiment [1] was 7.55; in experiment [2], 7.48.

For the molecule `Cc1ccc(-n2nc(C(=O)NC3CCc4ccccc4NC3=O)c(=O)cc2C)cn1` (centres unmarked) [Example 51, 6-methyl-1-(6-methylpyridin-3-yl)-4-oxo-N-(2-oxo-2,3,4,5-tetrahydro-1H-benzo[b]azepin-3-yl)-1,4-dihydro-pyridazine-3-carboxamide], the pIC50 in experiment [1] is 5.71; in experiment [2], 5.77.

`Cc1cc(=O)c(C(=O)NC2CCc3ccccc3NC2=O)nn1-c1cccc(C#N)c1` (centres unmarked) [Example 53, 1-(3-cyanophenyl)-6-methyl-4-oxo-N-(2-oxo-2,3,4,5-tetrahydro-1H-benzo[b]azepin-3-yl)-1,4-dihydropyridazine-3-carboxamide]: the pIC50 in experiment [1] was 6.19; in experiment [2] it was 6.23.

For `Cc1cc(=O)c(C(=O)NC2CCc3ccccc3NC2=O)nn1-c1cccc(F)c1` (centres unmarked) [Example 54, 1-(3-fluorophenyl)-6-methyl-4-oxo-N-(2-oxo-2,3,4,5-tetrahydro-1H-benzo[b]-azepin-3-yl)-1,4-dihydropyridazine-3-carboxamide], the figures for the negative logarithm of the IC50 (pIC50) in experiment [1] and in experiment [2] were 7.57 and 7.28, respectively.

For `Cc1cc(=O)c(C(=O)N[C@H]2COc3cc(C#N)ccc3N(C)C2=O)nn1-c1ccccc1` [Example 55, (S)-N-(8-cyano-5-methyl-4-oxo-2,3,4,5-tetrahydrobenzo[b][1,4]oxazepin-3-yl)-6-methyl-4-oxo-l-phenyl-1,4-dihydropyridazine-3-carboxamide], the pIC50 in experiment [1] was 7.48; in experiment [2], 7.27.

`Cc1cc(=O)c(C(=O)NC2CCc3ccccc3NC2=O)nn1-c1ccc(C#N)cc1` (centres unmarked) [Example 56, 1-(4-cyanophenyl)-6-methyl-4-oxo-N-(2-oxo-2,3,4,5-tetrahydro-1H-benzo[b]-azepin-3-yl)-1,4-dihydropyridazine-3-carboxamide]: the pIC50 in experiment [1] was 7.07; in experiment [2] it was 6.53.

Take `Cc1cc(=O)c(C(=O)NC2CCc3ccccc3NC2=O)nn1-c1ccc(F)cc1` (centres unmarked) [Example 57, 1-(4-fluorophenyl)-6-methyl-4-oxo-N-(2-oxo-2,3,4,5-tetrahydro-1H-benzo[b]-azepin-3-yl)-1,4-dihydropyridazine-3-carboxamide]: the figures for the pIC50 in experiment [1] and in experiment [2] were 7.70 and 7.39, respectively.

Turning to `Cc1cc(=O)c(C(=O)NC2CCc3ccccc3NC2=O)nn1-c1ccccc1F` (centres unmarked) [Example 59, 1-(2-fluorophenyl)-6-methyl-4-oxo-N-(2-oxo-2,3,4,5-tetrahydro-1H-benzo[b]-azepin-3-yl)-1,4-dihydropyridazine-3-carboxamide], the negative-log IC50 (pIC50) is 7.47 in experiment [1] and 7.13 in experiment [2].

For `Cc1cc(=O)c(C(=O)N[C@H]2COc3cc(C#N)ccc3N(C)C2=O)nn1-c1ccc(C#N)cc1` [Example 60, (S)-N-(8-cyano-5-methyl-4-oxo-2,3,4,5-tetrahydrobenzo[b][1,4]oxazepin-3-yl)-1-(4-cyanophenyl)-6-methyl-4-oxo-1,4-dihydropyridazine-3-carboxamide], the results for the pIC50 in experiment [1] and in experiment [2] were 7.07 and 6.37, respectively.

For `Cc1cc(=O)c(C(=O)N[C@H]2COc3cc(C#N)ccc3N(C)C2=O)nn1-c1cccc(F)c1` [Example 61, (S)-N-(8-cyano-5-methyl-4-oxo-2,3,4,5-tetrahydrobenzo[b][1,4]oxazepin-3-yl)-1-(3-fluorophenyl)-6-methyl-4-oxo-1,4-dihydropyridazine-3-carboxamide], the pIC50 is 7.24 in experiment [1] and 7.06 in experiment [2].

Regarding `Cc1ccc(-n2nc(C(=O)N[C@H]3COc4cc(C#N)ccc4N(C)C3=O)c(=O)cc2C)cc1F` [Example 62, (S)-N-(8-cyano-5-methyl-4-oxo-2,3,4,5-tetrahydrobenzo[b][1,4]oxazepin-3-yl)-1-(3-fluoro-4-methylphenyl)-6-methyl-4-oxo-1,4-dihydropyridazine-3-carboxamide], the pIC50 is 7.32 in experiment [1] and 7.17 in experiment [2].

For the molecule `Cc1cccc(-n2nc(C(=O)NC3CCc4ccccc4NC3=O)c(=O)cc2C)c1` (centres unmarked) [Example 64, 6-methyl-4-oxo-N-(2-oxo-2,3,4,5-tetrahydro-1H-benzo[b]azepin-3-yl)-1-(m-tolyl)-1,4-dihydropyridazine-3-carboxamide], the negative-log IC50 (pIC50) in experiment [1] was 7.37; in experiment [2], 7.11.

Turning to `COc1ccc(-n2nc(C(=O)NC3CCc4ccccc4NC3=O)c(=O)cc2C)cc1` (centres unmarked) [Example 65, 1-(4-methoxyphenyl)-6-methyl-4-oxo-N-(2-oxo-2,3,4,5-tetrahydro-1H-benzo[b]azepin-3-yl)-1,4-dihydropyridazine-3-carboxamide], the negative-log IC50 (pIC50) in experiment [1] was 7.32; in experiment [2], 6.91.

In the case of `Cc1cc(=O)c(C(=O)NC2CCc3ccccc3NC2=O)nn1-c1ccc(Cl)cc1` (centres unmarked) [Example 66, 1-(4-chlorophenyl)-6-methyl-4-oxo-N-(2-oxo-2,3,4,5-tetrahydro-1H-benzo[b]azepin-3-yl)-1,4-dihydro-pyridazine-3-carboxamide], the pIC50 in experiment [1] was 7.52; in experiment [2], 7.09.

For the molecule `COc1cccc(-n2nc(C(=O)NC3CCc4ccccc4NC3=O)c(=O)cc2C)c1` (centres unmarked) [Example 67, 1-(3-methoxyphenyl)-6-methyl-4-oxo-N-(2-oxo-2,3,4,5-tetrahydro-1H-benzo[b]-azepin-3-yl)-1,4-dihydropyridazine-3-carboxamide], the negative-log IC50 (pIC50) is 7.17 in experiment [1] and 6.55 in experiment [2].

(Values after patent US11690850B2, “Inhibitors of receptor interacting protein kinase I for the treatment of disease” (Board of Regents, The University of Texas System, priority 2019, dated 2023).)
